Results published in patent US11377444B2, “Pyridopyrimidine compounds acting as mTORC 1/2 dual inhibitors” (MEDSHINE DISCOVERY INC., priority 2017, dated 2022).
Like-named read-outs stand apart in the source and are kept apart here.

Key:
[1] = biological target: T1, mTOR kinase (mTORC1 and mTORC2 kinase complex) (Homo sapiens, UniProt P42345); test: In vitro evaluation of mTOR kinase inhibitory activity (DiscoverX ligand-bead competition binding, qPCR readout)
T1 construct: purchased DiscoverX; host or cells: HEK-293
Experimental: Experimental Embodiment 1: In Vitro Evaluation of mTOR Kinase Inhibitory Activity This experiment was performed by DiscoverX. All materials and methods were obtained from DiscoverX.
Kinase activity analysis.
1. Labeled mTOR kinase was stably expressed in HEK-293 cells.
2. Streptavidin magnetic beads were treated with biotinylated small molecule ligands at room temperature for 30 minutes to produce affinity resin for kinase analysis;
3. Ligand beads were blocked with excess biotin and washed with buffer (1% bovine serum albumin, […]) to remove unbound ligand and non-specifically bound ligand;
4. The assembly of kinase and ligand and affinity beads, and the binding reaction between the compound and the three were performed in buffer (20% blocking buffer, 0.17x phosphate buffer, 0.05% Tween […]);
5. The test compounds were dissolved in dimethyl sulfoxide;
6. All test compounds were dissolved in DMSO, and then directly diluted […]
7. The solution was placed in a 384-well polypropylene plate, wherein the volume of each well was 0.02 mL;
8. The plate was shaked for an hour at room temperature;
9. The plate was washed with buffer (1× PBS, 0.05% Tween 20);
10. The affinity beads were resuspended in buffer (1× PBS, 0.05% Tween […] non-biotin affinity ligand) and incubated at room temperature for 30 minutes;
11. The kinase concentration in the eluate was deteced by qPCR.

[2] = Pharmacokinetic evaluation in plasma after IV and PO administration; assay type: in vivo; conditions: female Balb/c mice; for AUC(0-inf) / AUC(0-t) / C0 / clearance / half-life / MRT inf / MRT last / Vd / Cmax / Tmax / bioavailability: mouse; for MRT inf: read-out: MRT0-inf; for MRT last: read-out: MRT0-last; for Vd: read-out: Vdss
Experimental: Experimental Embodiment 3: Pharmacokinetic Evaluation
The test compound was mixed with […] (Cremophor EL), vortexed and sonicated to prepare a 1 mg/mL near-clear solution, which was filtered with a microporous filter membrane for future use. Female Balb/c mice of 18 to 20 grams were selected and the solution of the test compound was administered intravenously at a dose of 1 or 2 mg/kg. The test compound was mixed with an aqueous solution of 1% Tween 80, 9% polyethylene glycol 400, and 90% water, vortexed and sonicated to prepare 1 mg/mL near-clear solution, which was filtered with a microporous filter membrane for future use.
Female Balb/c mice of 18 to 20 grams were selected, and the solution of the test compound was orally administered at a dose of 2 or 10 mg/kg. The whole blood was collected at a certain time, and prepared into plasma. The drug concentration was analyzed by LC-MS/MS, and the pharmacokinetic parameters were calculated using Phoenix WinNonlin software (Pharsight Corporation, USA).

MCF-7 cell = test: Cell proliferation inhibitory activity (Cell-Titer-Glo), MCF-7; assay type: cell-based; conditions: Homo sapiens, MCF7, 72 h; 3 days incubation
Excerpt: (§1) Experimental Embodiment 2: Evaluation of Cell Proliferation Inhibitory Activity
(§2) Experiment objective: To detect cell proliferation inhibitory activity of the tested compounds.
(§3) Experimental principle: The luciferase in the Cell-Titer-Glo reagent produces oxyluciferin using luciferin, oxygen and ATP as reaction substrates, and releases energy in the form of light. Since the reaction of luciferase requires ATP, the total amount of light generated by the reaction is proportional to the total amount of ATP that reflects cell viability.
(§4) Cell lines: MCF-7 cell line […], HT-29 cell line (ATCC-HTB-38), OE21 (ECACC-96062201), NCI-N87 cell line (ATCC-CRL-5822)
(§5) Cell culture medium: (RPMI 1640 culture medium (Invitrogen #1868546; 10% serum Invitrogen #1804958; L-glutamine 1×, Invitrogen #1830863; dual antibiotic Hyclone #J170012))
(§6) Cell Titer-Glo® Luminescent Cell Viability Assay Kit (Promega #G7573)
(§7) The cells were inoculated in a 384- or 96-well plate with a density of 1000 cells per well and 25 μL per well according to the instructions of the cell inoculating plate. The edge wells were not inoculated with cells, and was supplemented with […].
(§8) (i) The mother solution of the compound was 10 mM, and diluted with DMSO to an initial concentration of 4 mM. The compound was added to the compound mother solution, 9 μL per well.
(§9) (ii) The compound was diluted with ECHO liquid-handling workstation. Each well of the cell plate was added with 125 nL compound. Each well of the cell wells in 2nd column and 23rd column was added with 125 nL DMSO, and each of the PBS wells in 1st column and 24th column was added with 125 nL DMSO.
(§10) (iii) Each well of the cell plate was supplemented with 25 μL culture medium, the final volume in each well of the cell plate was 50 μL, […] 3 times dilution, 10 concentrations, each concentration was duplicated in left and right wells, the final DMSO concentration was 0.25%.
(§11) 2.3. After addition of the compound, centrifugation was performed at 1000 rpm for 1 min, and the cell plate was placed in a 37° C., 5% CO2 incubator for 3 days.
(§12) The cell plate was taken out from the incubator and equilibrated at room temperature for 30 minutes. 25 μL Cell-Titer-Glo reagent was added to each well, shaken for one minute to mix thoroughly, centrifuged at 1000 rpm for 1 minute. After 10 minutes, the plate was read on PerkinElmer Envision with a […] reading time was set at 0.2 second.

N87 cell = test: Cell proliferation inhibitory activity (Cell-Titer-Glo), N87; assay type: cell-based; conditions: 72 h; 3 days incubation
Excerpt: as §1, §2, §3, §4, §5, §6, §7, §8, §9, §10, §11, §12

[3] = tested on: human breast cancer MCF-7 cell subcutaneous xenograft tumor; test: In vivo pharmacodynamic study, MCF-7 subcutaneous xenograft tumor; design: species or system BALB/c nude mouse; conditions: 15 mg/kg
Excerpt: Experimental Embodiment 4: In Vivo Pharmacodynamic Study on BALB/c Nude Mouse Model of Human Breast Cancer MCF-7 Cell Subcutaneous Xenograft Tumor
Experimental objective: To study the efficacy of the test compounds on human breast cancer MCF-7 cell subcutaneous xenograft tumor in BALB/c nude mouse model.
Experimental animals: Female BALB/c nude mice, 6-8 weeks old, weighing 18-22 grams; supplier: Shanghai Xipuer-Bikai Experimental Animal Co., Ltd.
Human breast cancer MCF-7 cells (ECACC, article number: 86012803) were subjected to in vitro monolayer culture under the conditions of EMEM (EBSS)+2 mM […]+1% Non Essential Amino Acids (NEAA) medium containing 10% fetal bovine serum, 100 U/mL penicillin and 100 μg/mL streptomycin, and 37° C., 5% CO2incubator. Conventional digestion treatment was carried out with trypsin-EDTA twice a week for cell passage. When the cell saturation was 80%-90%, and the quantity reached the requirement, the cells were collected, counted and inoculated.
Estrogen tablets (0.18 mg) were inoculated into the left back of each mouse three days before cell inoculation, 0.2 mL (1×10^7) MCF-7 cells (added with matrigel, volume ratio of 1:1) were subcutaneously inoculated into the right back of each mouse. When the average volume of tumor reached 142 mm^3, the mice were divided into groups and began to be administrated.
The test compounds were prepared into clear solutions of 0.75 mg/mL, 1.5 mg/mL and 3 mg/mL. The vehicles were 5% DMSO+30% polyethylene glycol 300+65% water.
The experimental indexes were used for investigating whether the growth of the tumors had been inhibited, delayed or cured. The diameters of the tumors were measured with vernier calipers twice a week. The calculation formula of the tumor volume was: V=0.5a×b^2, wherein a and b represent the long and short diameters of the tumor respectively.
The antitumor efficacy of the compound was evaluated by TGI (%) or relative tumor proliferation rate T/C (%). TGI (%) reflects the inhibition rate of the tumor growth. Calculation of TGI (%): TGI (%)=[1−(average tumor volume at the end of administration in the treatment group−average tumor volume at the beginning of administration in the treatment group)/(average tumor volume at the end of treatment in the vehicle control group−average tumor volume at the beginning of treatment in the vehicle control group)]×[…].
Relative tumor proliferation rate T/C (%): The calculation formula was as follows: T/C %=TRTV/CRTV at the beginning of the treatment (TRTV: treatment group RTV; CRTV: negative control group RTV). The relative tumor volume (RTV) was calculated according to the results of tumor measurement. The calculation formula was RTV=Vt/V0, wherein V0 is the average tumor volume measured during administration of the groups (i.e. d0), and Vt is the average tumor volume during a certain measurement, the TRTV and CRTV were taken on the same day.
Statistical analysis included the mean and standard error (SEM) of tumor volume at each time point in each group. […] The comparison between two groups was analyzed by T-test, and the comparison between three or more groups was analyzed by one-way ANOVA.

| Kd [1] | AUCExtra ([2]; IV 1 mg/kg) | AUMCExtra ([2]; IV 1 mg/kg) | Tlast ([2]; IV 1 mg/kg) | AUCExtra ([2]; PO 2 mg/kg) | AUMCExtra ([2]; PO 2 mg/kg) | Tlast ([2]; PO 2 mg/kg) | AUC(0-inf) ([2]; IV 1 mg/kg) | AUC(0-t) ([2]; IV 1 mg/kg) | C0 ([2]; IV 1 mg/kg) | clearance ([2]; IV 1 mg/kg) | half-life ([2]; IV 1 mg/kg) | MRT inf ([2]; IV 1 mg/kg) | MRT last ([2]; IV 1 mg/kg) | Vd ([2]; IV 1 mg/kg) | AUC(0-inf) ([2]; PO 2 mg/kg) | AUC(0-t) ([2]; PO 2 mg/kg) | Cmax ([2]; PO 2 mg/kg) | Tmax ([2]; PO 2 mg/kg) | SMILES | IC50 (N87 cell) | other results |
| --- | --- | --- | --- | --- | --- | --- | --- | --- | --- | --- | --- | --- | --- | --- | --- | --- | --- | --- | --- | --- | --- |
| 0.0004 µM | 0.246% | 1.59% | 12.0 h | 1.84% | 8.59% | 8.00 h | 7.4 µM·h | 7.38 µM·h | 2.49 µM | 5.07 mL/min/kg | 1.38 h | 2.16 h | 2.13 h | 0.657 L/kg | 8.75 µM·h | 8.59 µM·h | 3.49 µM | 0.25 h | C[C@H]1COC2(CCC2)CN1c1nc(N2CCOC[C@@H]2C)c2ccc(-c3cccc(C(N)=O)c3)nc2n1 [Embodiment 35] | 0.044 µM | bioavailability ([2]; PO 2 mg/kg): 56.1%; half-life ([2]; PO 2 mg/kg): 1.33 h; MRT inf ([2]; PO 2 mg/kg): 2.13 h; MRT last ([2]; PO 2 mg/kg): 1.98 h; IC50 (MCF-7 cell): 0.105 µM |
| 0.00024 µM |  |  |  |  |  |  |  |  |  |  |  |  |  |  |  |  |  |  | C[C@H]1COCCN1c1nc(N2CCOC3(CCC3)C2)nc2nc(-c3cccc(C(N)=O)c3)ccc12 [Embodiment 44] | 0.089 µM | IC50 (MCF-7 cell): 0.171 µM; T/C [3]: 50.58%; TGI [3]: 65.23%; RTV (27th day) ([3]; 27th day): 2.11 ± 0.39; Tumor volume (27th day) ([3]; 27th day, mean ± SEM): 298 ± 55 mm^3; Tumor volume (day 0) ([3]; day 0, mean ± SEM): 143 ± 13 mm^3 |
|  | 0.0522% | 0.540% | 12 h | 0.0673% | 0.493% | 12.0 h | 9.47 µM·h | 9.46 µM·h | 9.7 µM | 3.49 mL/min/kg | 1.01 h | 1.3 h | 1.29 h | 0.272 L/kg | 16.3 µM·h | 16.3 µM·h | 7.73 µM | 0.5 h | CNC(=O)c1cc(-c2ccc3c(N4CCOC[C@@H]4C)nc(N4CCOC5(CC5)C4)nc3n2)ccc1OC [Embodiment 55] | 0.12 µM | bioavailability ([2]; PO 2 mg/kg): 86.1%; half-life ([2]; PO 2 mg/kg): 1.15 h; MRT inf ([2]; PO 2 mg/kg): 1.86 h; MRT last ([2]; PO 2 mg/kg): 1.86 h |
